Test results reported in patent US9700637B2, “Reaction-based fluorescent probes for detecting zinc” (Massachusetts Institute of Technology, priority 2013, dated 2017).

Columns and labels:
[1] = Deacetylation kinetics monitored by UV-vis absorbance (metal-mediated and uncatalyzed hydrolysis); type: physicochemical; settings: 2.75 μM, 125 μM ZnCl2, 37° C., 50 mM PIPES pH 7, 100 mM KCl, absorbance 510 nm
Experimental: FIG. 23 depicts kinetic traces for the deacetylation of DA-ZP1-TPP. The half-life for deacetylation of a 2.75 μM solution of DA-ZP1-TPP, at 37° C. in 50 mM PIPES buffer (pH 7) and 100 mM KCl, was measured in the presence of 125 μM ZnCl2 (+Zn), 250 μM EDTA (−Zn), or 1.25 units of porcine liver esterase (Esterase). The change in absorbance at 520 nm (EDTA and esterase) or 510 nm (ZnCl2) was used to monitor the reaction.
FIG. 26 depicts in vitro characterization of DA-ZP1-A3. (a) UV-vis and (b) fluorescence spectra of a 5 μM solution of DA-ZP1-A3 in buffer (50 mM PIPES, 100 mM KCl; pH 7). Spectra were acquired initially, upon addition of 100 μM ZnCl2, and again after addition of 200 μM EDTA. (c) Time-dependent change in the normalized absorbance of a ca. 5 μM solution DA-ZP1-A3 at 37° C. in buffer (50 mM PIPES, 100 mM KCl; pH 7) in the presence of 100 μM ZnCl2 (λabs=510 nm) or EDTA (λabs=520 nm). (d) Integrated fluorescence intensity of a 1 μM solution of ZP1-A3 (circles) or DA-ZP1-A3 (squares) as a function of pH. […]
DA-ZP1-TPP has a zinc-induced fluorescence response and is relatively stable to uncatalyzed hydrolysis and esterase activity. […] Other late 3d-block transition metal ions, such as Co(II) and Cu(II), can coordinate to DA-ZP1-TPP but are generally not available in appreciable chelatable quantities within the cell. […]

[2] = pH profile of fluorescence; type: physicochemical
Experimental: FIG. 21 depicts normalized fluorescence signals for DA-ZP1-TPP as a function of increasing pH in the presence of 125 μM ZnCl2 or 250 μM EDTA. Data were acquired 17.5 mM (0.1% v/v) acetic acid in milli-Q H2O beginning at pH 3.5. The pH of the solution was increased by sequential addition of aqueous KOH. The total volume of KOH added was less than 5% of the total volume. λex=475 nm.
FIG. 26 depicts in vitro characterization of DA-ZP1-A3. (a) UV-vis and (b) fluorescence spectra of a 5 μM solution of DA-ZP1-A3 in buffer (50 mM PIPES, 100 mM KCl; pH 7). Spectra were acquired initially, upon addition of 100 μM ZnCl2, and again after addition of 200 μM EDTA. (c) Time-dependent change in the normalized absorbance of a ca. 5 μM solution DA-ZP1-A3 at 37° C. in buffer (50 mM PIPES, 100 mM KCl; pH 7) in the presence of 100 μM ZnCl2 (λabs=510 nm) or EDTA (λabs=520 nm). (d) Integrated fluorescence intensity of a 1 μM solution of ZP1-A3 (circles) or DA-ZP1-A3 (squares) as a function of pH.
Next, we investigated the pH profile of DA-ZP1-TPP. The use of nitrogen atoms to coordinate zinc endows Zinpyr sensors with selectivity for zinc over calcium and magnesium, but also renders them pH sensitive. […] Protonation of these amines leads to increased background fluorescence because protons can diminish PeT in a manner similar to that of zinc ions. […]

RWPE-2 cells = assay: Mitochondrial zinc uptake imaging in prostate cells; type: cell-based; settings: RWPE-2, 50 μM ZnCl2 KSFM, 24 h
Experimental: FIG. 25 depicts decreased mitochondrial zinc uptake in cancerous cell lines. RWPE-1, RWPE-2, and PC-3 prostate cell lines were incubated for 24 h in medium supplemented with (+) and without (−) 50 μM ZnCl2. RWPE-1 is the only cell line that has a statistically significant (p<0.001) increase in mitochondrial zinc uptake when incubated in zinc-enriched media.
With a new mitochondrial-targeting sensor in hand, we used DA-ZP1-TPP to investigate the ability of prostate cell lines to accumulate zinc within their mitochondria. RWPE-1 and RWPE-2 are a pair of genetically similar cell lines that retain normal epithelial cell morphology, express cytokeratin markers for prostate epithelial cells, and are hormone sensitive. […] To explore the ability of RWPE-1 and -2 cells to sequester zinc in mitochondria, we measured the fluorescence intensity of DA-ZP1-TPP in both lines after the cells were bathed in normal or zinc-enriched (50 μM ZnCl2) keratinocyte serum-free medium (KSFM) for 24 h prior to imaging. RWPE-1 cells bathed in zinc-enriched medium have a fluorescence signal intensity that is ˜2.3-fold higher than cells bathed in normal medium (FIG. 25). […] Importantly, in both cell lines the observed fluorescence signals from DA-ZP1-TPP are sensitive to ZnPT and TPEN and have good correlation with MitoTracker Red, the Pearson's r values being 0.68±0.09 and 0.59±0.1 for RWPE-1 and -2, respectively. […]

- pH at which a strong zinc-dependent fluorescence response is displayed ([2]; presence of excess zinc ions (125 μM ZnCl2)): > 5
Structure (SMILES): CC(=O)Oc1c(Cl)cc2c(c1CN(Cc1ccccn1)Cc1ccccn1)Oc1c(cc(Cl)c(OC(C)=O)c1CN(Cc1ccccn1)Cc1ccccn1)C21OC(=O)c2ccc(C(=O)NCC[P+](c3ccccc3)(c3ccccc3)c3ccccc3)cc21 [DA-ZP1-TPP]
- kobs of zinc-induced deacetylation [1]: 0.0855 ± 0.019 s⁻¹
- fluorescence turn-on under acidic conditions ([2]; absence of zinc): no significant fluorescence turn-on under acidic conditions
- increase in fluorescence signal, zinc-enriched vs normal medium (RWPE-2 cells): no statistically significant increase
